Source: patent US20240000814A1, “TREATING ALCOHOL USE DISORDER USING PSILOCYBIN” (New York University, priority 2022, published 2024)

How the values were obtained:
Type in all cases: in vivo, human
[1] = test system: AUD patients; assay: Double-blind randomized trial of psilocybin-assisted treatment of AUD: drinking outcomes by timeline followback; details: for % of Heavy drinking days (PHDD), mean: 32-week double-blind follow-up (weeks 5-36) after first dose, oral psilocybin 25 mg/70 kg then 25-40 mg/70 kg or diphenhydramine 50 mg then 50-100 mg at weeks 4 and 8, with psychotherapy
Experimental: Design: In this double-blind trial, participants were offered 12 weeks of manualized psychotherapy and were randomly assigned to receive psilocybin vs. diphenhydramine during two day-long medication sessions at week 4 and 8. Outcomes were assessed over the 32-week double-blind period following the first dose of study medication.
Interventions: Study medications were psilocybin 25 mg/70 kg vs. diphenhydramine 50 mg (first session) and psilocybin 25-40 mg/70 kg vs. diphenhydramine 50-100 mg (second session). Psychotherapy included motivational enhancement therapy and cognitive-behavioral therapy.
Qualifying participants were assessed at screening, baseline (week 0), and weeks 4, 5, 8, 9, 12, 24, and 36. They were randomly assigned in a 1:1 ratio to receive either psilocybin or diphenhydramine, administered in two eight-hour sessions at weeks 4 and 8. All participants who completed the double-blind observation period (weeks 5-36) and still met safety criteria were offered an open-label psilocybin session at week 38, including four additional psychotherapy sessions and assessment for an additional 18 weeks. Participants received up to a total of $560 for completing assessments in the course of the trial, but were not reimbursed for attending the therapy and medication sessions.
All participants were offered a total of 12 psychotherapy sessions from a team of two therapists including a licensed psychiatrist: 4 before the first medication session, 4 between the first and second medication sessions, and 4 in the month following the second medication session. The psychotherapy, described in detail in a separate publication,^41 included motivational interviewing and cognitive behavioral therapy for AUD as well as material designed to help the participants to manage and make use of the psychoactive effects of the study medication.
Study medication was taken orally in a single opaque capsule of unvarying appearance and weight. Psilocybin doses were weight-based to control for participant body weight, which ranged from 49.0 to 116.1 (mean=78.3, SD=15.6) kg. Doses for the first session were psilocybin 25 mg/70 kg or diphenhydramine 50 mg. Participants received an increased dose in the second session if there were no dose-limiting adverse events and they agreed to the increase. The increased dose of psilocybin was 30 mg/70 kg if the participant's total score on the Pahnke-Richards Mystical Experience Questionnaire (MEQ)^42 was ≥0.6 in the first session (indicating a robust subjective response to the 25 mg/70 kg dose), or 40 mg/70 kg if the MEQ total score in the first session was <0.6. The increased dose of diphenhydramine was 100 mg, regardless of subjective response.
Study medication was administered at approximately 9 AM, after which participants were required to stay in the session room with the therapists for at least 8 hours (except for bathroom breaks). During the session, participants were encouraged to lie on a couch wearing eyeshades and headphones providing a standardized playlist of music. Medications were available in the session room to treat hypertension, severe anxiety, or psychotic symptoms.
The pre-specified primary drinking outcome was the percentage of heavy drinking days (PH DD) during […], assessed at weeks 8, 12, 24, and 36 using the timeline followback, a reliable and valid calendar-based method which is the gold standard outcome for AUD clinical trials.^43-47 Secondary outcomes included percent drinking days (PDD), average drinks per day (DPD), and dichotomous outcomes: abstinence, lack of heavy drinking days, and reduction in World Health Organization risk level^48 by one, two, or three levels. Hair or fingernail samples were collected at week 24 and assayed for ethylglucuronide (EtG) concentration to confirm self-reported abstinence. The Short Index of Problems (SIP-2R)^49 was used to assess drinking-related problems at baseline and weeks 12, 24, and 36. […]

[2] = test system: AUD patients; assay: Subjective effects of study medication, Mystical Experience Questionnaire (MEQ)
Experimental: Subjective effects of psilocybin vs. diphenhydramine were assessed using the States of Consciousness Questionnaire,^42 containing the 43-item Mystical Experience Questionnaire (MEQ), completed immediately after each medication session.
MEQ scores for the first and second medication sessions were computed and contrasted by group (psilocybin vs. diphenhydramine) using t-tests for independent samples.

[3] = test system: AUD patients; assay: Safety: blood pressure, heart rate and adverse events in the trial
Experimental: Blood pressure and heart rate were assessed at 30- to 60-minute intervals during the first 6 hours of each medication session. Adverse events were solicited at each post-screening assessment.
Blood pressure and heart rate treatment contrasts were based on MMRM with fixed, categorical effects of treatment and assessment, a treatment-by-assessment interaction, and a fixed covariate (value of each outcome prior to drug administration). All adverse events occurring after informed consent were MedDRA-coded and tabulated, and prevalence within treatment groups (proportion of participants affected) was compared using Fisher's exact tests.

[4] = 32-week double-blind follow-up (weeks 5-36)
[5] = 32 weeks following the first administration of study medication
[6] = treatment-emergent, within 48 hours of study drug administration

SMILES: CN(C)CCOC(c1ccccc1)c1ccccc1 [Diphenhydramine, diphenhydramine]
- % of Drinking days (PDD), mean [1, 4]: 42.83%
- Drinks per day (DPD), mean [1, 4]: 2.26 Drinks per day
- % of Heavy drinking days (PHDD), mean [1]: 23.57%
- % of Heavy drinking days (PHDD), mean ([1]; listed as diphenhydramine): 23.6%
- Abstinence, % of participants ([1]; Weeks 5-36): (8.9) %
- Abstinence, No. of participants ([1]; Weeks 5-36): 4
- No heavy drinking, % of participants ([1]; Weeks 5-36): (11.1) %
- No heavy drinking, No. of participants ([1]; Weeks 5-36): 5
- WHO risk level Decrease 1, % of participants ([1]; Weeks 5-36): (71.1) %
- WHO risk level Decrease 2, % of participants ([1]; Weeks 5-36): (40.0) %
- WHO risk level Decrease 2, No. of participants ([1]; Weeks 5-36): 18
- WHO risk level Decrease 3, % of participants ([1]; Weeks 5-36): (13.3) %
- WHO risk level Decrease 3, No. of participants ([1]; Weeks 5-36): 6
- WHO risk level Decrease 1, No. of participants ([1]; Weeks 5-36, relative to 12 weeks prior to screening): 32
- Abstinence, % of participants ([1]; Weeks 33-36): (24.4) %
- Abstinence, No. of participants ([1]; Weeks 33-36): 11
- No heavy drinking, % of participants ([1]; Weeks 33-36): (40.0) %
- No heavy drinking, No. of participants ([1]; Weeks 33-36): 18
- WHO risk level Decrease 1, % of participants ([1]; Weeks 33-36): (64.4) %
- WHO risk level Decrease 1, No. of participants ([1]; Weeks 33-36): 29
- WHO risk level Decrease 2, % of participants ([1]; Weeks 33-36): (40.0) %
- WHO risk level Decrease 2, No. of participants ([1]; Weeks 33-36): 18
- WHO risk level Decrease 3, % of participants ([1]; Weeks 33-36): (17.8) %
- WHO risk level Decrease 3, No. of participants ([1]; Weeks 33-36): 8
- Mean MEQ score ([2]; Session 1, psilocybin 25 mg/70 kg or diphenhydramine 50 mg): 0.10 (SD=0.13)
- Mean MEQ score ([2]; Session 2, psilocybin 25-40 mg/70 kg or diphenhydramine 50-100 mg): 0.11 (SD=0.16)
- Adverse events reported, number [3, 5]: 85
- Serious adverse events [3, 5]: Three
- Headaches, participants affected / treated [3, 6]: 2/45
- Headaches, percent of participants [3, 6]: 4.4%
